Assay results from patent US5756120A, “Antibiotic formulation and use for drug resistant infections” (NeXstar Pharmaceuticals, Inc., priority 1995, dated 1998).
Values joined by “and” are separate entries in the source; they are usually repeats but may differ in a detail not shown here. Equal entries are not always repeated.

Columns and labels:
[1] = test system: Mycobacterium tuberculosis; conditions: background statement; cited from earlier work
[2] = test system: MAC (101, type 1); assay: MAC infected beige mice, experiment 1 (daily for 5 days), tissue cfu; type: in vivo, Beige mice (C57B1/6bg^j /bg^j)
Protocol: (§1) The testing of liposome encapsulated amikacin for the treatment of MAC was performed using a murine model. Beige mice (C57B1/6bg^j /bg^j) were infected with MAC (101, type 1). The mice were infected by injection of 1×10^7 Colony Forming Units (cfu) in the mouse tail vein (i.v.). Three experiments were performed. In the first experiment, 40, 80 and 120 milligrams of amikacin (liposomal and free) per kilogram of mouse body-weight was given i.v. daily for 5 days, beginning 7 days after infection. The animals were sacrificed 5 days after treatment was completed and the liver, lung and spleen tissue were plated. Quantitation of organisms in liver, spleen and lung tissue was performed. The cfu were determined by growth on Middlebrook 7h11 agar plates. Untreated and empty liposomes were used as controls.
The liposomes were prepared as in Example 1. This experiment was performed in two identical parts. The liposomes in the first part were of an average size of 49.8 nm and the average size of the liposomes in the second part were 73.7 nm (mean diameter). The amikacin concentration was either 15.0 mg/ml or 13.21 mg/ml and the total lipid concentration was either 121 mg/ml or 55.7 mg/ml respectively (drug to lipid ratios: 0.123, 0.24). Free drug for all experiments was prepared in the same buffer that the liposomal formulations were contained in.

[3] = test system: MAC (101, type 1); assay: MAC infected beige mice, experiment 2 (three times/week for 21 days), tissue cfu; type: in vivo, Beige mice (C57B1/6bg^j /bg^j)
Protocol: as §1
Another experiment was carried out as above (also in two parts) except that the drug therapy was started 5 days after infection. The drug was given i.v. three times/week for 21 days. The mice were sacrificed 1-2 days after the treatment stopped. […] The lung tissues were not tested. Similar controls were used as above. The liposomes were prepared as described in Example 1. The average size of the liposomes was 66.5 nm or 79.6 nm (mean diameter). The concentration of the amikacin was either 15.98 mg/ml or 6.74 mg/ml. The total lipid was measure only the second part of the experiment and it was 27.0 mg/ml (drug to lipid ratio: 1:4.167).

[4] = 150 mg/kg; known in the art; cited from earlier work
[5] = test system: M. tuberculosis drug susceptible strain H37RV; assay: Intracellular activity against drug susceptible M. tuberculosis (H37RV) in human monocyte derived macrophages; type: cell-based; conditions: for CFU (1 × 10^3): duplicate values
[6] = test system: MAC (101, type 1); assay: MAC infected beige mice, experiment 3 (higher doses), tissue cfu; type: in vivo, Beige mice (C57B1/6bg^j /bg^j); conditions: 120 mg/kg i.v. three times/week for 21 days
Protocol: as §1
Another experiment was carried out as above (also in two parts) except that the drug therapy was started 5 days after infection. The drug was given i.v. three times/week for 21 days. The mice were sacrificed 1-2 days after the treatment stopped. During the treatment period, a group of mice received 40 mg/Kg, 80 mg/kg, and 150 mg/kg of free amikacin and another group received 40 mg/kg, 80 mg/kg, and 160 mg/kg of liposomal amikacin. The lung tissues were not tested. Similar controls were used as above. The liposomes were prepared as described in Example 1. The average size of the liposomes was 66.5 nm or 79.6 nm (mean diameter). The concentration of the amikacin was either 15.98 mg/ml or 6.74 mg/ml. The total lipid was measure only the second part of the experiment and it was 27.0 mg/ml (drug to lipid ratio: 1:4.167).
A third experiment was carried out as in the second experiment except that the mice treated with the liposomal amikacin received 120 mg/kg, 240 mg/kg and 320 mg/kg doses and the mice treated with the free amikacin received only 120 mg/kg doses. The liposomes were prepared as in Example 2 where the average size of the liposomes were 81.8 nm (median diameter). The amikacin concentration was 32.02 mg/ml and the total lipid concentration was 91.5 mg/ml (drug to lipid ratio: 1:2.941).

[7] = type: in vivo, mouse (C57B1/6); conditions: 100 mg/kg i.v.; 6 hours
Protocol: Amidacin content was measured in mouse (C57B1/6, females 2-3 months old) plasma after injection (i.v.) of free amikacin or liposomal amikacin (100 mg/kg). Liposomal amikacin was prepared as described in Example 2. Blood samples were obtained at various time intervals. The samples were collected by removing 100 microliters of blood, retroorbitally, from nonanesthetized mice. The samples were collected in heparinized capillary pipets which were plugged with modeling clay. The samples were centrifuged at 3250 rpm (20 cm rotor) for 10 minutes. The samples were analyzed using a radioimmunoassay (Diagnostic Products). The liposomal amikacin formulation contained liposomes with an average size of 43.6 nm (median diameter). The amikacin concentration was 10.09 mg/ml and the total lipid concentration was 56.8 mg/ml (drug to lipid ratio 1:5.556).

[8] = test system: Pseudomonas aeruginosa; assay: Efficacy and toxicity in Pseudomonas infected mice (mortality); type: in vivo, CF-1 mice; conditions: two doses
Protocol: The efficacy and toxicity of liposomal amikacin in Pseudomonas infected mice was tested. CF-1 mice were used (females, 6-8 weeks old). The mice were obtained from Jackson Labs. A clinical isolate of Pseudomonas aeruginosa was obtained on a Mueller Hinton/MacConkey blood agar plate. The organisms were transferred to a Mueller Hinton plate and grown for 24 hours. Colonies were transferred to saline and grown for 48 hours. The samples were frozen in saline containing 15% fetal calf serum at 1×10^8 organisms/ml (MacFarland Standard). The colonies were stored at -70° C. The colonies were thawed and grown in a Mueller Hinton plate for 24 hours. The bacteria were adjusted to 8×10^6 organisms/ml in saline containing talc (62.5 mg/ml) and 1 ml was injected intraperitoneal. A culture of inoculum on MH agar for 24 hours determined that approximately 7×10^6 cfu were delivered per mouse. Liposomal amikacin and empty liposomes were prepared as set out in Example 2. […] The lipid concentration was 95.31 mg/ml and the amikacin concentration was 23.54 mg/ml (0.25 drug/lipid ratio). The pH of the solution containing the formulation was 7.31. […] The concentration of the free amikacin solution was 23.54 mg/ml. The pH of the solution containing the liposomes was 7.33.
Mice were treated with 40 mg/kg (drug per body-weight), 80 mg/kg, 120 mg/kg and 240 mg/kg of liposomal amikacin. Mice were also treated with 40 mg/kg, 80 mg/kg, and 120 mg/kg of free amikacin. The drugs were administered intravenously in the caudal vein. Two doses were given; one at four hours after infection and one at twenty-four hours after infection.

[9] = 120 mg/kg i.v. daily for 5 days
[10] = 40 mg/kg i.v. three times/week for 21 days
[11] = 80 mg/kg i.v. three times/week for 21 days
[12] = 120 mg/kg i.v. three times/week for 21 days

**Q.** Which results are given for NCC[C@H](O)C(=O)N[C@@H]1C[C@H](N)[C@@H](O[C@H]2O[C@H](CN)[C@@H](O)[C@H](O)[C@H]2O)[C@H](O)[C@H]1O[C@H]1O[C@H](CO)[C@@H](O)[C@H](N)[C@H]1O [amikacin]?
**A.** effectiveness against Mycobacterium tuberculosis [1]: effective; Liver cfu/g ([2]; 40 mg/kg i.v. daily for 5 days): 1.41 × 10^8 cfu/g; Liver log cfu/g ([2]; 40 mg/kg i.v. daily for 5 days): 8.15 log cfu/g; Spleen cfu/g ([2]; 40 mg/kg i.v. daily for 5 days): 4.08 × 10^8 cfu/g; Spleen log cfu/g ([2]; 40 mg/kg i.v. daily for 5 days): 8.61 log cfu/g; lung cfu/gram ([2]; 40 mg/kg i.v. daily for 5 days): 1.44×10^6 cfu/gram; lung log ([2]; 40 mg/kg i.v. daily for 5 days): 6.16 log; Liver cfu/g ([2]; 80 mg/kg i.v. daily for 5 days): 7.79 × 10^7 cfu/g; Liver log cfu/g ([2]; 80 mg/kg i.v. daily for 5 days): 7.89 log cfu/g; Spleen cfu/g ([2]; 80 mg/kg i.v. daily for 5 days): 4.82 × 10^8 cfu/g; Spleen log cfu/g ([2]; 80 mg/kg i.v. daily for 5 days): 8.68 log cfu/g; lung cfu/gram ([2]; 80 mg/kg i.v. daily for 5 days): 1.29×10^6 cfu/gram; lung log ([2]; 80 mg/kg i.v. daily for 5 days): 6.11 log; Liver cfu/g [2, 9]: 5.65 × 10^7 cfu/g; Liver log cfu/g [2, 9]: 7.75 log cfu/g; Spleen cfu/g [2, 9]: 3.46 × 10^8 cfu/g; Spleen log cfu/g [2, 9]: 8.54 log cfu/g; lung cfu/gram [2, 9]: 9.94×10^5 cfu/gram; lung log [2, 9]: 6.00 log; Liver cfu/g [3, 10]: 1.09 × 10^8 cfu/g; Liver log cfu [3, 10]: 8.04 log cfu; Spleen cfu/g [3, 10]: 5.76 × 10^8 cfu/g; Spleen log cfu [3, 10]: 8.76 log cfu; Liver cfu/g [3, 11]: 3.67 × 10^7 cfu/g; Liver log cfu [3, 11]: 7.56 log cfu; Spleen cfu/g [3, 11]: 2.02 × 10^8 cfu/g; Spleen log cfu [3, 11]: 8.31 log cfu; Liver cfu/g [3, 12]: 3.15 × 10^7 cfu/g; Liver log cfu [3, 12]: 7.50 log cfu; Spleen cfu/g [3, 12]: 1.48 × 10^8 cfu/g; Spleen log cfu [3, 12]: 8.17 log cfu; lethality in mice [4]: will kill many of the mice injected; inhibition or killing of drug susceptible M. tuberculosis ([5]; 1 μg/ml): inhibited the growth of the bacteria; Avg. log CFU ([5]; 1 μg/ml, day 4): 4.7 log CFU; CFU (1 × 10^3) ([5]; 1 μg/ml, day 4): 50 1 × 10^3 CFU and 60 1 × 10^3 CFU; Avg. log CFU ([5]; 1 μg/ml, day 7): 5.9 log CFU; CFU (1 × 10^3) ([5]; 1 μg/ml, day 7): 900 1 × 10^3 CFU and 800 1 × 10^3 CFU; inhibition or killing of drug susceptible M. tuberculosis ([5]; 2 μg/ml): inhibition; Avg. log CFU ([5]; 2 μg/ml, day 4): 4.3 log CFU; CFU (1 × 10^3) ([5]; 2 μg/ml, day 4): 20 1 × 10^3 CFU; Avg. log CFU ([5]; 2 μg/ml, day 7): 4.7 log CFU; CFU (1 × 10^3) ([5]; 2 μg/ml, day 7): 40 1 × 10^3 CFU and 50 1 × 10^3 CFU; Avg. log CFU ([5]; 4 μg/ml, day 4): 3.7 log CFU; inhibition or killing of drug susceptible M. tuberculosis ([5]; 4 μg/ml, day 4): obtained killing at day 4; CFU (1 × 10^3) ([5]; 4 μg/ml, day 4): 4 1 × 10^3 CFU; Avg. log CFU ([5]; 4 μg/ml, day 7): 3.4 log CFU; CFU (1 × 10^3) ([5]; 4 μg/ml, day 7): 1.5 1 × 10^3 CFU and 3 1 × 10^3 CFU; Liver cfu/g [6]: 6.10 × 10^7 cfu/g; Liver log cfu/g [6]: 7.78 log cfu/g; Spleen cfu/g [6]: 2.13 × 10^8 cfu/g; Spleen log cfu/g [6]: 8.33 log cfu/g; Average Concentration (plasma amikacin) [7]: none detected; Mortality % ([8]; 40 mg/kg i.v.): 25%; Mortality ([8]; 40 mg/kg i.v., 24 hours post infection): 1/4; Mortality ([8]; 40 mg/kg i.v., 30 hours post infection): 1/4; Mortality ([8]; 40 mg/kg i.v., 48 hours post infection): 1/4; Mortality ([8]; 40 mg/kg i.v., 72 hours post infection): 1/4; Mortality % ([8]; 80 mg/kg i.v.): 0%; Mortality ([8]; 80 mg/kg i.v., 24 hours post infection): 0/6; Mortality ([8]; 80 mg/kg i.v., 30 hours post infection): 0/6; Mortality ([8]; 80 mg/kg i.v., 48 hours post infection): 0/6; Mortality ([8]; 80 mg/kg i.v., 72 hours post infection): 0/6; Mortality % ([8]; 120 mg/kg i.v.): 0%; Mortality ([8]; 120 mg/kg i.v., 24 hours post infection): 0/6; Mortality ([8]; 120 mg/kg i.v., 30 hours post infection): 0/6; Mortality ([8]; 120 mg/kg i.v., 48 hours post infection): 0/6; Mortality ([8]; 120 mg/kg i.v., 72 hours post infection): 0/6
